Data published in patent US6884407B1, “Methods for diagnostic imaging involving the use of a contrast agent and a coronary vasodilator” (Bristol-Myers Squibb Pharma Company, priority 1996, dated 2005).
Like-named read-outs stand apart in the source and are kept apart here.

Columns and labels:
myocardium = experiment: Ultrasound dose range studies of myocardium echo enhancement before and after coronary vasodilator; type: in vivo; conditions: 20 Kg pig, dipyridamole 0.56 mg/Kg IV over 4 minutes with gas filled vesicles of Example 1
Experimental: This example includes a description of methods for imaging the cardiovascular region of a patient in accordance with methods within the scope of the present invention.
A 20 Kg pig is anesthetized with isoflurane and a Swan Ganz catheter is inserted to monitor hemodynamics. Dose range studies are conducted using the gas filled vesicles prepared in Example 1 to determine the minimum dose required to enhance the myocardium echo, which is defined as greater than 10 videodensitometry units as determined by repeated videodensity measurements. After the dose range studies are performed, dipyridamole is administered intravenously at a dose of 0.56 mg/Kg over a period of 4 minutes. After a 5 minute latency period, dose range studies are repeated.

[1] = saturated diacyl-sn-glycero-3-phosphocholines, main chain melting transition; cited from earlier work
[2] = Calculated diameter of emulsified droplet to form a 10 μm vesicle (ideal gas law); type: physicochemical; conditions: for Diameter (μm) of emulsified droplet to make 10 micron vesicle: Table 2
Source text: As noted above, compositions employed herein may also include, with respect to their preparation, formation and use, gaseous precursors that can be activated to change from a liquid or solid state into a gas by temperature, pH, light, and energy (such as ultrasound). The gaseous precursors may be made into gas by storing the precursors at reduced pressure. For example, a vial stored under reduced pressure may create a headspace of perfluoropentane or perfluorohexane gas, useful for creating a preformed gas prior to injection. Preferably, the gaseous precursors may be activated by temperature. Set forth below is a table listing a series of gaseous precursors which undergo phase transitions from liquid to gaseous states at relatively close to normal body temperature (37° C.) or below, and the size of the emulsified droplets that would be required to form a vesicle of a maximum size of 10 μm.
The ideal gas law, which can be used for calculating the increase in the volume of the gas bubbles upon transitioning from liquid to gaseous states, is as follows: PV=nRT where
Thus, for stabilization of the precursor in the liquid state in a mixture wherein the precursor droplet is spherical, the volume of the precursor droplet may be determined by the equation: Volume (spherical vesicle)=4/3 πr^3 where
(B) where D is the density of the precursor. Solving for the diameter of the liquid droplet, diameter/2=[3/4π[4/3·[πrgas^3]P/RT]MWn/D]^1/3 (C) which reduces to Diameter=2[[rgas^3]P/RT[MWn/D]]^1/3.

[3] = cited from earlier work; for Boiling Point: Table 2, CRC Handbook
[4] = cited from earlier work
[5] = Table 2, CRC Handbook, in g/mL (unit assumed)

Compound | Main Phase Transition Temperature [1] | Diameter (μm) of emulsified droplet to make 10 micron vesicle [2] | Boiling Point [3] | Density [4, 5] | also measured
OCCN(CCO)c1nc(N2CCCCC2)c2nc(N(CCO)CCO)nc(N3CCCCC3)c2n1 [dipyridamole] |  |  |  |  | diagnostic artifacts (myocardium): substantially eliminated; dosage of contrast agent required to obtain a medically useful diagnostic image of the cardiovascular region (myocardium; after vs before dipyridamole): significantly smaller dosage
CCCCCCCCCCCCCC(=O)OC[C@H](COP(=O)([O-])OCC[N+](C)(C)C)OC(=O)CCCCCCCCCCCCC [1,2-(14:0)] | 23.5 °C |  |  |  | 
CCCCCCCCCCCCCCCCCCC(=O)OC[C@H](COP(=O)([O-])OCC[N+](C)(C)C)OC(=O)CCCCCCCCCCCCCCCCCC [1,2-(19:0)] | 61.8 °C |  |  |  | 
CCCCCCCCCCCCCCCC(=O)OC[C@H](COP(=O)([O-])OCC[N+](C)(C)C)OC(=O)CCCCCCCCCCCCCCC [1,2-(16:0)] | 41.4 °C |  |  |  | 
C#CC(C)C [3-methyl-1-butyne] |  | 2.5 μm | 29.5 °C | 0.6660 | 
CCCCCCCCCCCCCCCCCC(=O)OC[C@H](COP(=O)([O-])OCC[N+](C)(C)C)OC(=O)CCCCCCCCCCCCCCCCC [1,2-(18:0)] | 55.1 °C |  |  |  | 
CCCCCCCCCCCCCCCCCCCCCCCC(=O)OCC(COP(=O)([O-])OCC[N+](C)(C)C)OC(=O)CCCCCCCCCCCCCCCCCCCCCCC (stereo not shown) [1,2-(24:0)] | 80.1 °C |  |  |  | 
CCCCCCCCCCCCCCCCC(=O)OC[C@H](COP(=O)([O-])OCC[N+](C)(C)C)OC(=O)CCCCCCCCCCCCCCCC [1,2-(17:0)] | 48.2 °C |  |  |  | 
FC(F)(F)C(F)(F)C(F)(F)C(F)(F)C(F)(F)C(F)(F)F [perfluorohexane] |  |  |  |  | liquid/gas phase transition temperature (boiling point) [3]: 57 °C
CCCCCCCCCCCCC(=O)OC[C@H](COP(=O)([O-])OCC[N+](C)(C)C)OC(=O)CCCCCCCCCCCC [1,2-(13:0)] | 13.7 °C |  |  |  | 
CCCCCCCCCCCCCCCCCCCCC(=O)OC[C@H](COP(=O)([O-])OCC[N+](C)(C)C)OC(=O)CCCCCCCCCCCCCCCCCCCC [1,2-(21:0)] | 71.1 °C |  |  |  | 
CCCCCCCCCCCCCCCCCCCC(=O)OC[C@H](COP(=O)([O-])OCC[N+](C)(C)C)OC(=O)CCCCCCCCCCCCCCCCCCC [1,2-(20:0)] | 64.5 °C |  |  |  | 
CC=C(C)C [2-methyl-2-butene] |  | 2.5 μm | 38.6 °C | 0.6623 | 
CCCCCCCCCCCCCCCCCCCCCCC(=O)OCC(COP(=O)([O-])OCC[N+](C)(C)C)OC(=O)CCCCCCCCCCCCCCCCCCCCCC (stereo not shown) [1,2-(23:0)] | 79.5 °C |  |  |  | 
CCC(C)C [2-methyl butane (isopentane), 2-methyl butane] |  | 2.6 μm |  | 0.6201 | 
2-methyl 1-butene |  | 2.5 μm | 31.2 °C | 0.6504 | 
FC(F)(F)C(F)(F)F [hexafluoro ethane] |  | 2.7 μm |  | 1.607 | 
CCCCF [1-fluorobutane] |  | 1.2 μm | 32.5 °C | 0.6779 | diameter of emulsion droplets to make a gaseous precursor filled vesicle with an upper limit of 10 μm ([2]; equation (C), 37° C., 1 atmosphere): 0.0544 μm; liquid/gas phase transition temperature (boiling point) [3]: 32.5 °C; Density ([4]; at 20° C.): 0.7789 g/mL
FC(F)(F)C(F)(F)C(F)(F)C(F)(F)C(F)(F)F [perfluoro pentane, perfluoropentane] |  | 2.9 μm | 29.5 °C | 1.7326 | liquid/gas phase transition temperature (boiling point) [3]: 29.5 °C
CCCCCCCCCCCCCCC(=O)OC[C@H](COP(=O)([O-])OCC[N+](C)(C)C)OC(=O)CCCCCCCCCCCCCC [1,2-(15:0)] | 34.5 °C |  |  |  | 
CCCCCCCCCCCC(=O)OC[C@H](COP(=O)([O-])OCC[N+](C)(C)C)OC(=O)CCCCCCCCCCC [1,2-(12:0)] | −1.0 °C |  |  |  | 
CCCCCCCCCCCCCCCCCCCCCC(=O)OC[C@H](COP(=O)([O-])OCC[N+](C)(C)C)OC(=O)CCCCCCCCCCCCCCCCCCCCC [1,2-(22:0)] | 74.0 °C |  |  |  | 
FC(F)(F)C(F)(F)C(F)(F)C(F)(F)F [decafluoro butane, perfluorobutane] |  | 3.0 μm | −2 °C | 1.517 | liquid/gas phase transition temperature (boiling point) [3]: 4 °C
C#CC(=C)C [1-butene-3-yne-2-methyl] |  | 2.4 μm | 34.0 °C | 0.6801 | 
FC1(F)C(F)(F)C(F)(F)C1(F)F [octafluoro cyclobutane, octafluorocyclobutane] |  | 2.8 μm | −5.8 °C | 1.48 | 
